Assay results from ChEMBL document CHEMBL5154747, “Discovery of new carbonic anhydrase IX inhibitors as anticancer agents by toning the hydrophobic and hydrophilic rims of the active site to encounter the dual-tail approach” (Eur J Med Chem, 2022).

Experiments:
PC-3 = assay: Anticancer activity against human PC-3 cells assessed as cell growth inhibition at 10 uM incubated for 48 hrs by SRB assay relative to control; assay type: functional; details: read-out: GI
HCC 2998 = assay: Anticancer activity against human HCC 2998 cells assessed as cell growth inhibition at 10 uM incubated for 48 hrs by SRB assay relative to control; assay type: functional; details: read-out: GI
T47D = assay: Anticancer activity against human T47D cells assessed as cell growth inhibition at 10 uM incubated for 48 hrs by SRB assay relative to control; assay type: functional; details: read-out: GI
HT-29 = assay: Anticancer activity against human HT-29 cells assessed as cell growth inhibition at 10 uM incubated for 48 hrs by SRB assay relative to control; assay type: functional; details: read-out: GI
SK-MEL-5 = assay: Anticancer activity against human SK-MEL-5 cells assessed as cell growth inhibition at 10 uM incubated for 48 hrs by SRB assay relative to control; assay type: functional; details: read-out: GI
U-251 = assay: Anticancer activity against human U-251 cells assessed as cell growth inhibition at 10 uM incubated for 48 hrs by SRB assay relative to control; assay type: functional; details: read-out: GI
CAKI-1 = assay: Anticancer activity against human CAKI-1 cells assessed as cell growth inhibition at 10 uM incubated for 48 hrs by SRB assay relative to control; assay type: functional; details: read-out: GI
A549 = assay: Anticancer activity against human A549 cells assessed as cell growth inhibition at 10 uM incubated for 48 hrs by SRB assay relative to control; assay type: functional; details: read-out: GI
SK-MEL-2 = assay: Anticancer activity against human SK-MEL-2 cells assessed as cell growth inhibition at 10 uM incubated for 48 hrs by SRB assay relative to control; assay type: functional; details: read-out: GI
OVCAR-8 = assay: Anticancer activity against human OVCAR-8 cells assessed as cell growth inhibition at 10 uM incubated for 48 hrs by SRB assay relative to control; assay type: functional; details: read-out: GI
EKVX = assay: Anticancer activity against human EKVX cells assessed as cell growth inhibition at 10 uM incubated for 48 hrs by SRB assay relative to control; assay type: functional; details: read-out: GI
SW-620 = assay: Anticancer activity against human SW-620 cells assessed as cell growth inhibition at 10 uM incubated for 48 hrs by SRB assay relative to control; assay type: functional; details: read-out: GI
NCI-H522 = assay: Anticancer activity against human NCI-H522 cells assessed as cell growth inhibition at 10 uM incubated for 48 hrs by SRB assay relative to control; assay type: functional; details: read-out: GI
SNB-19 = assay: Anticancer activity against human SNB-19 cells assessed as cell growth inhibition at 10 uM incubated for 48 hrs by SRB assay relative to control; assay type: functional; details: read-out: GI
KM12 = assay: Anticancer activity against human KM12 cells assessed as cell growth inhibition at 10 uM incubated for 48 hrs by SRB assay relative to control; assay type: functional; details: read-out: GI
CCRF-CEM = assay: Anticancer activity against human CCRF-CEM cells assessed as cell growth inhibition at 10 uM incubated for 48 hrs by SRB assay relative to control; assay type: functional; details: read-out: GI
NCI-H460 = assay: Anticancer activity against human NCI-H460 cells assessed as cell growth inhibition at 10 uM incubated for 48 hrs by SRB assay relative to control; assay type: functional; details: read-out: GI
HOP-92 = assay: Anticancer activity against human HOP-92 cells assessed as cell growth inhibition at 10 uM incubated for 48 hrs by SRB assay relative to control; assay type: functional; details: read-out: GI
OVCAR-3 = assay: Anticancer activity against human OVCAR-3 cells assessed as cell growth inhibition at 10 uM incubated for 48 hrs by SRB assay relative to control; assay type: functional; details: read-out: GI
SF-539 = assay: Anticancer activity against human SF-539 cells assessed as cell growth inhibition at 10 uM incubated for 48 hrs by SRB assay relative to control; assay type: functional; details: read-out: GI
MCF7 = assay: Anticancer activity against human MCF7 cells assessed as cell growth inhibition at 10 uM incubated for 48 hrs by SRB assay relative to control; assay type: functional; details: read-out: GI
K562 = assay: Anticancer activity against human K562 cells assessed as cell growth inhibition at 10 uM incubated for 48 hrs by SRB assay relative to control; assay type: functional; details: read-out: GI
Carbonic anhydrase 9 = Carbonic anhydrase 9 (Homo sapiens, UniProt Q16790); assay: Inhibition of recombinant human CA 9 preincubated for 15 mins by phenol red dye based stopped flow CO2 hydration assay
RPMI-8226 = assay: Anticancer activity against human RPMI-8226 cells assessed as cell growth inhibition at 10 uM incubated for 48 hrs by SRB assay relative to control; assay type: functional; details: read-out: GI
NCI-H226 = assay: Anticancer activity against human NCI-H226 cells assessed as cell growth inhibition at 10 uM incubated for 48 hrs by SRB assay relative to control; assay type: functional; details: read-out: GI
MDA-MB-468 = assay: Anticancer activity against human MDA-MB-468 cells assessed as cell growth inhibition at 10 uM incubated for 48 hrs by SRB assay relative to control; assay type: functional; details: read-out: GI
UACC-257 = assay: Anticancer activity against human UACC-257 cells assessed as cell growth inhibition at 10 uM incubated for 48 hrs by SRB assay relative to control; assay type: functional; details: read-out: GI
MDA-MB-435 = assay: Anticancer activity against human MDA-MB-435 cells assessed as cell growth inhibition at 10 uM incubated for 48 hrs by SRB assay relative to control; assay type: functional; details: read-out: GI
SF-295 = assay: Anticancer activity against human SF-295 cells assessed as cell growth inhibition at 10 uM incubated for 48 hrs by SRB assay relative to control; assay type: functional; details: read-out: GI
SK-OV-3 = assay: Anticancer activity against human SK-OV-3 cells assessed as cell growth inhibition at 10 uM incubated for 48 hrs by SRB assay relative to control; assay type: functional; details: read-out: GI
NCI-H23 = assay: Anticancer activity against human NCI-H23 cells assessed as cell growth inhibition at 10 uM incubated for 48 hrs by SRB assay relative to control; assay type: functional; details: read-out: GI
UACC-62 = assay: Anticancer activity against human UACC-62 cells assessed as cell growth inhibition at 10 uM incubated for 48 hrs by SRB assay relative to control; assay type: functional; details: read-out: GI
Hs-578T = assay: Anticancer activity against human Hs-578T cells assessed as cell growth inhibition at 10 uM incubated for 48 hrs by SRB assay relative to control; assay type: functional; details: read-out: GI
UO-31 = assay: Anticancer activity against human UO-31 cells assessed as cell growth inhibition at 10 uM incubated for 48 hrs by SRB assay relative to control; assay type: functional; details: read-out: GI
COLO 205 = assay: Anticancer activity against human COLO 205 cells assessed as cell growth inhibition at 10 uM incubated for 48 hrs by SRB assay relative to control; assay type: functional; details: read-out: GI
NCI-H322M = assay: Anticancer activity against human NCI-H322M cells assessed as cell growth inhibition at 10 uM incubated for 48 hrs by SRB assay relative to control; assay type: functional; details: read-out: GI
HOP-62 = assay: Anticancer activity against human HOP-62 cells assessed as cell growth inhibition at 10 uM incubated for 48 hrs by SRB assay relative to control; assay type: functional; details: read-out: GI
Malme-3M = assay: Anticancer activity against human Malme-3M cells assessed as cell growth inhibition at 10 uM incubated for 48 hrs by SRB assay relative to control; assay type: functional; details: read-out: GI
A498 = assay: Anticancer activity against human A498 cells assessed as cell growth inhibition at 10 uM incubated for 48 hrs by SRB assay relative to control; assay type: functional; details: read-out: GI
DU-145 = assay: Anticancer activity against human DU-145 cells assessed as cell growth inhibition at 10 uM incubated for 48 hrs by SRB assay relative to control; assay type: functional; details: read-out: GI

Row | SMILES | inhibition of growth at 10 µM (PC-3) [%] | inhibition of growth at 10 µM (HCC 2998) [%] | inhibition of growth at 10 µM (T47D) [%] | inhibition of growth at 10 µM (HT-29) [%] | inhibition of growth at 10 µM (SK-MEL-5) [%] | inhibition of growth at 10 µM (U-251) [%] | inhibition of growth at 10 µM (CAKI-1) [%] | inhibition of growth at 10 µM (A549) [%] | inhibition of growth at 10 µM (SK-MEL-2) [%] | inhibition of growth at 10 µM (OVCAR-8) [%] | inhibition of growth at 10 µM (EKVX) [%] | inhibition of growth at 10 µM (SW-620) [%] | inhibition of growth at 10 µM (NCI-H522) [%] | inhibition of growth at 10 µM (SNB-19) [%] | inhibition of growth at 10 µM (KM12) [%] | inhibition of growth at 10 µM (CCRF-CEM) [%] | inhibition of growth at 10 µM (NCI-H460) [%] | inhibition of growth at 10 µM (HOP-92) [%] | inhibition of growth at 10 µM (OVCAR-3) [%] | inhibition of growth at 10 µM (SF-539) [%] | other results
1 | NS(=O)(=O)c1ccc(Nc2nc(N/N=C/c3ccccc3)nc(Nc3ccccc3)n2)cc1 | 31 | 21 | 37 | 37 | 35 | 14 | 27 | 28 | 10 | 20 | 29 | < 10 | < 10 | < 10 | 26 | 52 | 31 | 27 | 29 | 23 | inhibition of growth at 10 µM (MCF7): 46%; inhibition of growth at 10 µM (K562): 40%; Ki (Carbonic anhydrase 9): 30.3 nM; inhibition of growth at 10 µM (RPMI-8226): 41%; inhibition of growth at 10 µM (NCI-H226): 22%; inhibition of growth at 10 µM (MDA-MB-468): 19%; inhibition of growth at 10 µM (UACC-257): < 10%; inhibition of growth at 10 µM (MDA-MB-435): 26%; inhibition of growth at 10 µM (SF-295): 27%; inhibition of growth at 10 µM (SK-OV-3): < 10%; inhibition of growth at 10 µM (NCI-H23): 13%; inhibition of growth at 10 µM (UACC-62): 31%; inhibition of growth at 10 µM (Hs-578T): 43%; inhibition of growth at 10 µM (UO-31): 34%; inhibition of growth at 10 µM (COLO 205): 14%; inhibition of growth at 10 µM (NCI-H322M): 27%; inhibition of growth at 10 µM (HOP-62): < 10%; inhibition of growth at 10 µM (Malme-3M): 22%; inhibition of growth at 10 µM (A498): 42%; inhibition of growth at 10 µM (DU-145): 38%
2 | NS(=O)(=O)c1ccc(Nc2nc(N/N=C/c3ccccn3)nc(Nc3ccccc3)n2)cc1 | 107 | 174 | 118 | 93 | 184 | 155 | 125 | 64 | 182 | 96 | 86 | 117 | 132 | 90 | 95 | 94 | 96 | 146 | 115 | 142 | inhibition of growth at 10 µM (MCF7): 98%; inhibition of growth at 10 µM (K562): 87%; Ki (Carbonic anhydrase 9): 27.2 nM; inhibition of growth at 10 µM (RPMI-8226): 63%; inhibition of growth at 10 µM (NCI-H226): 149%; inhibition of growth at 10 µM (MDA-MB-468): 129%; inhibition of growth at 10 µM (UACC-257): 118%; inhibition of growth at 10 µM (MDA-MB-435): 184%; inhibition of growth at 10 µM (SF-295): 100%; inhibition of growth at 10 µM (SK-OV-3): 131%; inhibition of growth at 10 µM (NCI-H23): 107%; inhibition of growth at 10 µM (UACC-62): 149%; inhibition of growth at 10 µM (Hs-578T): 118%; inhibition of growth at 10 µM (UO-31): 82%; inhibition of growth at 10 µM (COLO 205): 142%; inhibition of growth at 10 µM (NCI-H322M): 109%; inhibition of growth at 10 µM (HOP-62): 128%; inhibition of growth at 10 µM (Malme-3M): 168%; inhibition of growth at 10 µM (A498): 167%; inhibition of growth at 10 µM (DU-145): 95%
3 | NS(=O)(=O)c1ccc(Nc2nc(N/N=C/c3cccs3)nc(Nc3ccccc3)n2)cc1 | 23 | 11 | 38 | 29 | 26 | < 10 | 44 | 11 | 24 | 29 | 24 | 10 | 20 | < 10 | 44 | 68 | 31 | 44 | 35 | 34 | inhibition of growth at 10 µM (MCF7): 47%; inhibition of growth at 10 µM (K562): 39%; Ki (Carbonic anhydrase 9): 255 nM; inhibition of growth at 10 µM (RPMI-8226): 47%; inhibition of growth at 10 µM (NCI-H226): 29%; inhibition of growth at 10 µM (MDA-MB-468): 50%; inhibition of growth at 10 µM (UACC-257): < 10%; inhibition of growth at 10 µM (MDA-MB-435): 25%; inhibition of growth at 10 µM (SF-295): 23%; inhibition of growth at 10 µM (SK-OV-3): < 10%; inhibition of growth at 10 µM (NCI-H23): 19%; inhibition of growth at 10 µM (UACC-62): 24%; inhibition of growth at 10 µM (Hs-578T): 34%; inhibition of growth at 10 µM (UO-31): 16%; inhibition of growth at 10 µM (COLO 205): 18%; inhibition of growth at 10 µM (NCI-H322M): 23%; inhibition of growth at 10 µM (HOP-62): 15%; inhibition of growth at 10 µM (Malme-3M): 20%; inhibition of growth at 10 µM (A498): 43%; inhibition of growth at 10 µM (DU-145): 40%
